The values that follow come from patent publication US8772498B2, “Alkylamine-substituted dicyanopyridine and amino acid ester prodrugs thereof” (Bayer Intellectual Property GmbH, priority 2009, dated 2014).

Counter-ions that a name gives are not always drawn.

One may read the solubility as how much of the substance goes into solution per volume. Read a high solubility as much dissolved substance. Usually EC50 stands for the concentration needed to bring the measured effect to its halfway point. The low end stands for a more potent agent, the high end for a less potent agent.

Series [1] in a line: Determination of the solubility in 5% strength aqueous dextrose solution. The class given is physicochemical. As to conditions: for solubility at 24 h: saline or isotonic, thermodynamic from solid, room temperature. How it is done:
B-8. Determination of Solubility, Stability and Liberation Behavior a) Determination of the Solubility:
The test substance is suspended in 5% strength aqueous dextrose solution. This suspension is shaken at room temperature for 24 h. After ultracentrifugation at 224 000 g for 30 min, the supernatant is diluted with DMSO and analyzed by HPLC. A two-point calibration plot of the test compound in DMSO is used for quantification.
Agilent 1100 with DAD (G1315A), quat. pump (G1311A), autosampler CTC HTS PAL, degasser (G1322A) and column thermostat (G1316A); column: Phenomenex Gemini C18, 5 μm, 50 mm×2 mm; temperature: 40° C.; eluent A: water/phosphoric acid pH 2; eluent B: acetonitrile; flow rate: 0.7 ml/min; gradient: 0-0.5 min 85% A, 15% B; ramp: 0.5-3 min 10% A, 90% B; 3-3.5 min 10% A, 90% B; ramp: 3.5-4 min 85% A, 15% B; 4-5 min 85% A, 15% B.
Agilent 1100 with DAD (G1315A), quat. pump (G1311A), autosampler CTC HTS PAL, degasser (G1322A) and column thermostat (G1316A); column: VDSoptilab Kromasil 100 C18, 3.5 μm, 60 mm×2.1 mm; temperature: 30° C.; eluent A: water+5 ml perchloric acid/I; eluent B: acetonitrile; flow rate: 0.75 ml/min; gradient: 0-0.5 min 98% A, 2% B; ramp: 0.5-4.5 min 10% A, 90% B; 4.5-6 min 10% A, 90% B; ramp: 6.5-6.7 min 98% A, 2% B; 6.7-7.5 min 98% A, 2% B.

Series [2] can be described thus: Stability in buffer at various pH values. The class given is physicochemical. On the procedure: b) Stability in Buffer at Various pH Values:
0.3 mg of the test substance is weighed into a 2 ml HPLC vial and 0.5 ml of acetonitrile or acetonitrile/DMSO (9:1) is added. The substance is dissolved by putting the sample vessel in an ultrasonic bath for about 10 seconds. Then 0.5 ml of the respective (buffer) solution is added, and the sample is again treated in the ultrasonic bath.
(Buffer) solutions employed:
pH 4: 1 liter of Millipore water is adjusted to pH 4.0 with 1 N hydrochloric acid;
pH 7.4: 90.0 g of sodium chloride, 13.61 g of potassium dihydrogen phosphate and 83.35 g of 1 N sodium hydroxide solution are made up to 1 liter with water; this solution is then further diluted 1:10 with Millipore water.
5 μl portions of the test solution are analyzed by HPLC for their content of unchanged test substance, and of active substance (A) produced, every hour over a period of 24 hours at 37° C. The percentage areas of the appropriate peaks are used for quantification.
HPLC method for Examples 41 and 44:
Agilent 1100 with DAD (G1315B), binary pump (G1312A), autosampler (G1329A), column oven (G1316A), thermostat (G1330B); column: Kromasil 100 C18, 250 mm×4 mm, 5 μm; column temperature: 30° C.; mobile phase A: water+5 ml of perchloric acid/liter, eluent B: acetonitrile; gradient: 0 min 90% A→5.0 min 40% A→18.0 min 10% A→19.0 min 10% A→21.0 min 90% A→23.0 min 90% A; flow rate: 2.0 ml/min; UV detection: 288 nm.
HPLC Method for Examples 50 and 59:
Agilent 1100 with DAD (G1315B), binary pump (G1312A), autosampler (G1329A), column oven (G1316A), thermostat (G1330B); column: Kromasil 100 C18, 125 mm×4 mm, 5 μm; column temperature: 30° C.; mobile phase A: water+5 ml of perchloric acid/liter, eluent B: acetonitrile; gradient: 0 min 90% A→5.0 min 60% A→7.0 min 60% A→10.0 min 10% A→12.0 min 10% A→14.0 min 90% A→16.0 min 90% A; flow rate: 2.0 ml/min; UV detection: 294 nm.
HPLC Method for Example 54:
Agilent 1100 with DAD (G1314A), binary pump (G1312A), autosampler (G1329A), column oven (G1316A), thermostat (G1330A); column: Kromasil 100 C18, 250 mm×4 mm, 5 μm; column temperature: 30° C.; mobile phase A: water+5 ml of perchloric acid/liter, eluent B: acetonitrile; gradient: 0 min 90% A→5.0 min 40% A→18.0 min 10% A→19.0 min 10% A→21.0 min 90% A→23.0 min 90% A; flow rate: 2.0 ml/min; UV detection: 288 nm.
The ratios of the peak areas (F) at the respective time points in relation to the peak areas at the starting time are shown in Table 2 for representative exemplary embodiments: […]

In the next series the target is T1, adenosine A1 receptor (Homo sapiens, UniProt P30542).
T1 construct: expressed in transfected cells; host or cells: CHO (Chinese Hamster Ovary)
T1 sequence (P30542 1-326): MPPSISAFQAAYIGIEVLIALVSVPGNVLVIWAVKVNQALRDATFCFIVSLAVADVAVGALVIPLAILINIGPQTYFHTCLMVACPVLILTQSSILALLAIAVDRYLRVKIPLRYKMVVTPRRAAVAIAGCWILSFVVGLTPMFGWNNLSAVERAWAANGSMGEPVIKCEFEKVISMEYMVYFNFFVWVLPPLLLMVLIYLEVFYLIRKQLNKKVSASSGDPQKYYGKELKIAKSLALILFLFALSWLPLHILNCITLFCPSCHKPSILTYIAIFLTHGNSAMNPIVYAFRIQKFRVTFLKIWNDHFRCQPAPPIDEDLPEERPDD
Nature of the series: Indirect determination of adenosine agonism by gene expression (luciferase), A1 cells. To be noted: CHO cells, luciferase readout, 1 μM forskolin. The class given is cell-based. From the text: (§1) B-1. Indirect Determination of the Adenosine Agonism by Way of Gene Expression
(§2) Cells of the CHO (Chinese Hamster Ovary) permanent cell line are transfected stably with the cDNA for the adenosine receptor subtypes A1, A2a and A2b. The adenosine A1 receptors are coupled to the adenylate cyclase by way of G, proteins, while the adenosine A2a and A2b receptors are coupled by way of Gs proteins. In correspondence with this, the formation of cAMP in the cell is inhibited or stimulated, respectively. After that, expression of the luciferase is modulated by way of a cAMP-dependent promoter. The luciferase test is optimized, with the aim of high sensitivity and reproducibility, low variance and good suitability for implementation on a robot system, by varying several test parameters, such as cell density, duration of the growth phase and the test incubation, forskolin concentration and medium composition. The following test protocol is used for pharmacologically characterizing cells and for the robot-assisted substance screening:
(§3) The stock cultures are grown, at 37° C. and under 5% CO2, in DMEM/F12 medium containing 10% FCS (fetal calf serum) and in each case split 1:10 after 2-3 days. The test cultures are seeded in 384-well plates with 2000 cells per well and grown at 37° C. for approx. 48 hours. The medium is then replaced with a physiological sodium chloride solution (130 mM sodium chloride, 5 mM potassium chloride, 2 mM calcium chloride, 20 mM HEPES, 1 mM magnesium chloride hexahydrate, 5 mM sodium bicarbonate, pH 7.4). The substances to be tested, which are dissolved in DMSO, are pipetted into the test cultures (maximum final concentration of DMSO in the test mixture: 0.5%) in a dilution series of from 5×10^−11 M to 3×10^−6 M (final concentration). 10 minutes later, forskolin is added to the A1 cells and all the cultures are subsequently incubated at 37° C. for four hours. After that, 35 μl of a solution which is composed of 50% lysis reagent (30 mM disodium hydrogenphosphate, 10% glycerol, 3% TritonX100, 25 mM TrisHCl, 2 mM dithiotreitol (DTT), pH 7.8) and 50% luciferase substrate solution (2.5 mM ATP, 0.5 mM luciferin, 0.1 mM coenzyme A, 10 mM tricine, 1.35 mM magnesium sulfate, 15 mM DTT, pH 7.8) are added to the test cultures, which are shaken for approx. 1 minute and the luciferase activity is measured using a camera system. The ECK values are determined, i.e., the concentrations at which 50% of the luciferase answer is inhibited in the case of the A1 cell, and, respectively, 50% of the maximum stimulation with the corresponding substance is achieved in the case of the A2b and A2a cells.
(§4) Table 1 below lists the ECK values of representative working examples for the receptor stimulation on adenosine A1, A2a and A2b receptor subtypes: […]

The target in the next series is T2, adenosine A2b receptor (Homo sapiens, UniProt P29275).
T2 construct: expressed in transfected cells; host or cells: CHO (Chinese Hamster Ovary)
T2 sequence (P29275 1-332): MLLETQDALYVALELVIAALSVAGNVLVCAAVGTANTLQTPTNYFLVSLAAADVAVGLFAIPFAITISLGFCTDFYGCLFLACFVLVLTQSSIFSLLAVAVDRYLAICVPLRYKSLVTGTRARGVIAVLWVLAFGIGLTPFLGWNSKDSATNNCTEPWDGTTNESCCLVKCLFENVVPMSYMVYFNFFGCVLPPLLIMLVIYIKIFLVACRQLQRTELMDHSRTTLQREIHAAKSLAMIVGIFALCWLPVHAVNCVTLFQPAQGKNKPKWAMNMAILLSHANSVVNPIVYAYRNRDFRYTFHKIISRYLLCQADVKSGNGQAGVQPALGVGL
Nature of the series: Indirect determination of adenosine agonism by gene expression (luciferase), A2b cells. The class given is cell-based. To be noted: CHO cells, luciferase readout.
Text: as §1, §2, §3, §4

In turn, `CNc1nc(SCc2csc(-c3ccc(Cl)cc3)n2)c(C#N)c(-c2ccc(OCCOC(=O)[C@@H](N)CCCN)cc2)c1C#N` [Example 52, 2-{4-(2-({(2-(4-Chlorophenyl)-1,3-thiazol-4-yl)methyl}sulfanyl)-3,5-dicyano-6-(methylamino)pyridin-4-yl)phenoxy}ethyl L-ornithinate bis(trifluoroacetate)] yielded a solubility at 24 h in series [1] of 280 µg/mL.
Regarding `N#Cc1c(SCc2csc(-c3ccc(Cl)cc3)n2)nc(N2CCCC2)c(C#N)c1-c1ccc(OCCOC(=O)CCN)cc1` [Example 50, 2-{4-(2-({(2-(4-Chlorophenyl)-1,3-thiazol-4-yl)methyl}sulfanyl)-3,5-dicyano-6-(pyrrolidin-1-yl)pyridin-4-yl)phenoxy}ethyl beta-alaninate trifluoroacetate], in series [2] (pH 4, 37° C.), the “% test substance after 4 h (F(t = 4 h) × 100/F(t = 0 h))” value (“% test substance after 4 h” below) is 99% and the “% test substance after 24 h (F(t = 24 h) × 100/F(t = 0 h))” value (“% test substance after 24 h” for short) is given as 99%. Further, in series [2] (pH 7.4, 37° C.), the “% test substance after 4 h” value is given as 94% and the “% test substance after 24 h” value is recorded as 78%.
Compound `CCCNc1nc(SCc2csc(-c3ccc(Cl)cc3)n2)c(C#N)c(-c2ccc(OCCOC(=O)[C@H](C)NC(=O)[C@@H](N)CCCCN)cc2)c1C#N` [Example 54, 2-{4-(2-({(2-(4-Chlorophenyl)-1,3-thiazol-4-yl)methyl}sulfanyl)-3,5-dicyano-6-(propylamino)pyridin-4-yl)phenoxy}ethyl L-lysyl-L-alaninate bis(trifluoroacetate)] had a solubility at 24 h in series [1] of 640 µg/mL. In addition, in series [2] (pH 4, 37° C.), the “% test substance after 4 h” value is on record as 98% and the “% test substance after 24 h” value turned out to be 97%. Further, in series [2] (pH 7.4, 37° C.), the “% test substance after 4 h” value is on record as 29% and the “% test substance after 24 h” value is 0%.
With `C[C@H](NC(=O)[C@@H](N)CCCN)C(=O)OCCOc1ccc(-c2c(C#N)c(SCc3csc(-c4ccc(Cl)cc4)n3)nc(N3CCCC3)c2C#N)cc1` [Example 58, 2-{4-(2-({(2-(4-Chlorophenyl)-1,3-thiazol-4-yl)methyl}sulfanyl)-3,5-dicyano-6-(pyrrolidin-1-yl)pyridin-4-yl)phenoxy}ethyl L-ornithyl-L-alaninate bis(trifluoroacetate)], the solubility at 24 h in series [1] was 470 µg/mL.
On to `N#Cc1c(SCc2csc(-c3ccc(Cl)cc3)n2)nc(N2CCOCC2)c(C#N)c1-c1ccc(OCCO)cc1` [Example 17, 2-({(2-(4-chlorophenyl)-1,3-thiazol-4-yl)methyl}sulfanyl)-4-(4-(2-hydroxyethoxy)phenyl)-6-(morpholin-4-yl)pyridine-3,5-dicarbonitrile], for which the EC50 at adenosine A1 receptor turned out to be 0.3 nM; at adenosine A2b receptor, 55 nM.
For the compound `N#Cc1c(SCc2csc(-c3ccc(Cl)cc3)n2)nc(N2CCCC2)c(C#N)c1-c1ccc(OCCOC(=O)[C@@H](N)CCCN)cc1` [Example 59, 2-{4-(2-({(2-(4-Chlorophenyl)-1,3-thiazol-4-yl)methyl}sulfanyl)-3,5-dicyano-6-(pyrrolidin-1-yl)pyridin-4-yl)phenoxy}ethyl L-ornithinate bis(trifluoroacetate)], in series [2] (pH 4, 37° C.), the “% test substance after 4 h” value came out at 99% and the “% test substance after 24 h” value was determined as 95%. In addition, in series [2] (pH 7.4, 37° C.), the “% test substance after 4 h” value was found to be 0% and the “% test substance after 24 h” value stood at 0%.
Take `CCCNc1nc(SCc2csc(-c3ccc(Cl)cc3)n2)c(C#N)c(-c2ccc(OCCO)cc2)c1C#N` [Example 12]: the “Solubility of the active substance” value in series [1] (result in words) is given as “below the detection limit”.
Turning to `CCCNc1nc(SCc2csc(-c3ccc(Cl)cc3)n2)c(C#N)c(-c2ccc(OCCOC(=O)[C@H](C)NC(=O)[C@H](C)N)cc2)c1C#N` [Example 51, 2-{4-(2-({(2-(4-Chlorophenyl)-1,3-thiazol-4-yl)methyl}sulfanyl)-3,5-dicyano-6-(propylamino)pyridin-4-yl)phenoxy}ethyl L-alanyl-L-alaninate trifluoroacetate], the solubility at 24 h in series [1] stood at 540 µg/mL.
